Measurements reported in PubChem BioAssay AID256 (DTP/NCI, 2004).
Where “and” joins values, the source holds several entries; their conditions need not be identical. Equal values may be shown once. Toxic doses and inconclusive results are not listed.

Test system: CD2F1 mice, L1210 leukemia ip, survival T/C
Assay: NCI In Vivo Anticancer Drug Screen. Data for tumor model L1210 Leukemia (intraperitoneal) in CD2F1 (CDF1) mice
Conditions: higher = longer survival
How it was run: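 Mice carrying a transplanted tumor received test compound or vehicle alone. The value is the measurement in the treated group divided by that in the vehicle-treated control group.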

[1] = endpoint: mean survival time, dose: 100.0 mg/kg/injection, schedule: Q04DX002 (ip), vehicle: saline with Tween-80
[2] = endpoint: mean survival time, dose: 200.0 mg/kg/injection, schedule: Q04DX002 (ip), vehicle: saline with Tween-80
[3] = endpoint: mean survival time, dose: 50.0 mg/kg/injection, schedule: Q01DX009 (ip), vehicle: saline with Tween-80
[4] = endpoint: mean survival time, dose: 100.0 mg/kg/injection, schedule: Q01DX009 (ip), vehicle: saline with Tween-80
[5] = endpoint: mean survival time, dose: 100.0 mg/kg/injection, schedule: Q04DX003 (ip), vehicle: saline with Tween-80
[6] = endpoint: mean survival time, dose: 200.0 mg/kg/injection, schedule: Q04DX003 (ip), vehicle: saline with Tween-80
[7] = endpoint: mean survival time, dose: 400.0 mg/kg/injection, schedule: Q04DX003 (ip), vehicle: saline with Tween-80
[8] = endpoint: mean survival time, dose: 25.0 mg/kg/injection, schedule: Q04DX002 (ip), vehicle: saline with Tween-80
[9] = endpoint: mean survival time, dose: 50.0 mg/kg/injection, schedule: Q04DX002 (ip), vehicle: saline with Tween-80

With `COC1C(O)C(CO)OC1n1cc(F)c(=O)[nH]c1=O` (stereo not drawn) the T/C (endpoint: mean survival time, dose: 50.0 mg/kg/injection, schedule: Q01DX009 (ip), vehicle: saline) was 104 % of control, the T/C (endpoint: mean survival time, dose: 100.0 mg/kg/injection, schedule: Q01DX009 (ip), vehicle: saline) was 100 % of control and the T/C (endpoint: mean survival time, dose: 200.0 mg/kg/injection, schedule: Q01DX009 (ip), vehicle: saline) was 115 % of control.

In the case of `CC[PH+](CC)CC[S-].CC[PH+](CC)CC[S-].[Au+].[Au+]`, the T/C (endpoint: mean survival time, dose: 2.5 mg/kg/injection, schedule: Q01DX009 (ip), vehicle: Klucel (hydroxypropylcellulose) (HPC)) is reported as 102 % of control and 107 % of control, the T/C (endpoint: mean survival time, dose: 5.0 mg/kg/injection, schedule: Q01DX009 (ip), vehicle: Klucel (hydroxypropylcellulose) (HPC)) is reported as 95 % of control and 106 % of control and the T/C (endpoint: mean survival time, dose: 10.0 mg/kg/injection, schedule: Q01DX009 (ip), vehicle: Klucel (hydroxypropylcellulose) (HPC)) is reported as 92 % of control and 109 % of control. For the same compound, the T/C (endpoint: mean survival time, dose: 20.0 mg/kg/injection, schedule: Q01DX009 (ip), vehicle: Klucel (hydroxypropylcellulose) (HPC)) was 97 % of control and 109 % of control, the T/C (endpoint: mean survival time, dose: 40.0 mg/kg/injection, schedule: Q01DX009 (ip), vehicle: Klucel (hydroxypropylcellulose) (HPC)) was 89 % of control and the T/C (endpoint: mean survival time, dose: 80.0 mg/kg/injection, schedule: Q01DX009 (ip), vehicle: Klucel (hydroxypropylcellulose) (HPC)) was 101 % of control.

With `CCNC(=O)C(=O)NCC` the T/C [1] was 103 % of control, the T/C [2] was 100 % of control and the T/C (endpoint: mean survival time, dose: 400.0 mg/kg/injection, schedule: Q04DX002 (ip), vehicle: saline with Tween-80) was 103 % of control.

`COc1ccc(/C=C(\C)[N+](=O)[O-])cc1OC` was tested, and the T/C (endpoint: mean survival time, dose: 12.5 mg/kg/injection, schedule: Q01DX009 (ip), vehicle: water) was 105 % of control, the T/C (endpoint: mean survival time, dose: 25.0 mg/kg/injection, schedule: Q01DX009 (ip), vehicle: water) was 93 % of control and the T/C (endpoint: mean survival time, dose: 50.0 mg/kg/injection, schedule: Q01DX009 (ip), vehicle: water) was 93 % of control.

With `CC(=O)ON1C(=O)c2cccc3cccc(c23)C1=O` the T/C [3] was 96 % of control and the T/C [4] was 102 % of control.

For `O=S1(=O)CC23CC=CCC2(CC=CC3)C1` (stereo not drawn), the T/C (endpoint: mean survival time, dose: 100.0 mg/kg/injection, schedule: Q04DX003 (ip), vehicle: other) was 100 % of control and the T/C (endpoint: mean survival time, dose: 200.0 mg/kg/injection, schedule: Q04DX003 (ip), vehicle: other) was 102 % of control.

In the case of `C=CC1CC(=O)N1` (stereo not drawn), the T/C (endpoint: mean survival time, dose: 75.0 mg/kg/injection, schedule: Q01DX009 (ip), vehicle: saline) is reported as 102 % of control, the T/C (endpoint: mean survival time, dose: 75.0 mg/kg/injection, schedule: Q04DX003 (ip), vehicle: saline) is reported as 97 % of control and the T/C (endpoint: mean survival time, dose: 150.0 mg/kg/injection, schedule: Q01DX009 (ip), vehicle: saline) is reported as 103 % of control. For the same compound, the T/C (endpoint: mean survival time, dose: 150.0 mg/kg/injection, schedule: Q04DX003 (ip), vehicle: saline) was 101 % of control, the T/C (endpoint: mean survival time, dose: 300.0 mg/kg/injection, schedule: Q01DX009 (ip), vehicle: saline) was 103 % of control and the T/C (endpoint: mean survival time, dose: 300.0 mg/kg/injection, schedule: Q04DX003 (ip), vehicle: saline) was 95 % of control.

In the case of `CC(=O)OC(CNCC(=O)O)C(Cl)(Cl)Cl` (stereo not drawn), the T/C [5] is reported as 102 % of control, the T/C [6] is reported as 98 % of control and the T/C [7] is reported as 98 % of control.

In the case of `CCOC(=O)CC(O)CC` (stereo not drawn), the T/C (endpoint: mean survival time, dose: 100.0 mg/kg/injection, schedule: Q04DX002 (ip), vehicle: saline) is reported as 95 % of control, the T/C (endpoint: mean survival time, dose: 200.0 mg/kg/injection, schedule: Q04DX002 (ip), vehicle: saline) is reported as 95 % of control and the T/C (endpoint: mean survival time, dose: 400.0 mg/kg/injection, schedule: Q04DX002 (ip), vehicle: saline) is reported as 95 % of control.

With `CSc1c(N)nc(N)[nH]c1=O` the T/C (endpoint: mean survival time, dose: 100.0 mg/kg/injection, schedule: Q01DX001 (ip), vehicle: alkali diluted with water) was 96 % of control, the T/C (endpoint: mean survival time, dose: 200.0 mg/kg/injection, schedule: Q01DX001 (ip), vehicle: alkali diluted with water) was 94 % of control and the T/C (endpoint: mean survival time, dose: 400.0 mg/kg/injection, schedule: Q01DX001 (ip), vehicle: alkali diluted with water) was 96 % of control.

In the case of `CC1(C)N=C(N)N=C(N)N1c1cccc(CCCc2ccccc2)c1`, the T/C (endpoint: mean survival time, dose: 6.25 mg/kg/injection, schedule: Q01DX001 (ip), vehicle: saline) is reported as 96 % of control.

With `O=C1C=CC(=O)N1c1ccc(Cl)cc1` the T/C (endpoint: mean survival time, dose: 6.25 mg/kg/injection, schedule: Q01DX001 (ip), vehicle: Klucel (hydroxypropylcellulose) (HPC)) was 100 % of control, the T/C (endpoint: mean survival time, dose: 6.25 mg/kg/injection, schedule: Q01DX009 (ip), vehicle: Klucel (hydroxypropylcellulose) (HPC)) was 110 % of control and the T/C (endpoint: mean survival time, dose: 6.25 mg/kg/injection, schedule: Q04DX003 (ip), vehicle: Klucel (hydroxypropylcellulose) (HPC)) was 107 % of control. For the same compound, the T/C (endpoint: mean survival time, dose: 12.5 mg/kg/injection, schedule: Q01DX001 (ip), vehicle: Klucel (hydroxypropylcellulose) (HPC)) was 103 % of control, the T/C (endpoint: mean survival time, dose: 12.5 mg/kg/injection, schedule: Q01DX009 (ip), vehicle: Klucel (hydroxypropylcellulose) (HPC)) was 101 % of control and the T/C (endpoint: mean survival time, dose: 12.5 mg/kg/injection, schedule: Q04DX003 (ip), vehicle: Klucel (hydroxypropylcellulose) (HPC)) was 104 % of control. For the same compound, the T/C (endpoint: mean survival time, dose: 25.0 mg/kg/injection, schedule: Q01DX009 (ip), vehicle: Klucel (hydroxypropylcellulose) (HPC)) was 96 % of control.

In the case of `CC(=O)OC(C)C(OC(C)=O)C(OC(C)=O)C(C=O)OC(C)=O` (stereo not drawn), the T/C (endpoint: mean survival time, dose: 100.0 mg/kg/injection, schedule: Q01DX001 (ip), vehicle: Klucel (hydroxypropylcellulose) (HPC)) is reported as 101 % of control, the T/C (endpoint: mean survival time, dose: 200.0 mg/kg/injection, schedule: Q01DX001 (ip), vehicle: Klucel (hydroxypropylcellulose) (HPC)) is reported as 101 % of control and the T/C (endpoint: mean survival time, dose: 400.0 mg/kg/injection, schedule: Q01DX001 (ip), vehicle: Klucel (hydroxypropylcellulose) (HPC)) is reported as 101 % of control.

In the case of `COc1cc(OC)c(C(=O)CCl)c(O)c1Cl`, the T/C [4] is reported as 93 % of control.

`CC(=O)C(C(C)=O)C1C=CC=CC=C1` was tested, and the T/C [3] was 100 % of control and the T/C (endpoint: mean survival time, dose: 200.0 mg/kg/injection, schedule: Q01DX009 (ip), vehicle: saline with Tween-80) was 94 % of control.

For `O=C(/C=C/c1cccnc1)/C=C/c1cccnc1`, the T/C (endpoint: mean survival time, dose: 6.25 mg/kg/injection, schedule: Q01DX009 (ip), vehicle: other) was 105 % of control, the T/C (endpoint: mean survival time, dose: 12.5 mg/kg/injection, schedule: Q01DX009 (ip), vehicle: other) was 105 % of control and the T/C (endpoint: mean survival time, dose: 12.5 mg/kg/injection, schedule: Q04DX003 (ip), vehicle: acetone) was 104 % of control. The T/C (endpoint: mean survival time, dose: 25.0 mg/kg/injection, schedule: Q01DX009 (ip), vehicle: other) was 107 % of control, the T/C (endpoint: mean survival time, dose: 25.0 mg/kg/injection, schedule: Q04DX003 (ip), vehicle: acetone) was 103 % of control and the T/C (endpoint: median survival time, dose: 3.13 mg/kg/injection, schedule: Q01DX005 (ip), vehicle: Klucel (hydroxypropylcellulose) (HPC)) was 102 % of control. The T/C (endpoint: median survival time, dose: 6.25 mg/kg/injection, schedule: Q01DX005 (ip), vehicle: Klucel (hydroxypropylcellulose) (HPC)) was 97 % of control, the T/C (endpoint: median survival time, dose: 12.5 mg/kg/injection, schedule: Q01DX005 (ip), vehicle: Klucel (hydroxypropylcellulose) (HPC)) was 95 % of control and the T/C (endpoint: median survival time, dose: 25.0 mg/kg/injection, schedule: Q01DX005 (ip), vehicle: Klucel (hydroxypropylcellulose) (HPC)) was 98 % of control. For the same compound, the T/C (endpoint: median survival time, dose: 50.0 mg/kg/injection, schedule: Q01DX005 (ip), vehicle: Klucel (hydroxypropylcellulose) (HPC)) was 100 % of control.

With `Cn1c(=O)[nH]cc(C2OC(CO)C(O)C2O)c1=O` (stereo not drawn) the T/C (endpoint: median survival time, dose: 12.5 mg/kg/injection, schedule: Q01DX005 (ip), vehicle: saline) was 103 % of control, the T/C (endpoint: median survival time, dose: 25.0 mg/kg/injection, schedule: Q01DX005 (ip), vehicle: saline) was 100 % of control and the T/C (endpoint: median survival time, dose: 50.0 mg/kg/injection, schedule: Q01DX005 (ip), vehicle: saline) was 92 % of control. For the same compound, the T/C (endpoint: median survival time, dose: 100.0 mg/kg/injection, schedule: Q01DX005 (ip), vehicle: saline) was 100 % of control and the T/C (endpoint: median survival time, dose: 200.0 mg/kg/injection, schedule: Q01DX005 (ip), vehicle: saline) was 107 % of control.

`CC(c1ccccc1)n1cncc1C(=O)N1CCN(C)CC1` (stereo not drawn) was tested, and the T/C (endpoint: mean survival time, dose: 25.0 mg/kg/injection, schedule: Q01DX009 (ip), vehicle: saline with Tween-80) was 105 % of control, the T/C [3] was 96 % of control and the T/C [4] was 94 % of control and 95 % of control. The T/C [5] was 92 % of control, the T/C [6] was 91 % of control and the T/C [7] was 97 % of control.

`O=C(O)C(Br)CCC(Br)C(=O)O` (stereo not drawn) was tested, and the T/C (endpoint: mean survival time, dose: 100.0 mg/kg/injection, schedule: Q01DX001 (ip), vehicle: other) was 102 % of control, the T/C (endpoint: mean survival time, dose: 200.0 mg/kg/injection, schedule: Q01DX001 (ip), vehicle: other) was 102 % of control and the T/C (endpoint: mean survival time, dose: 400.0 mg/kg/injection, schedule: Q01DX001 (ip), vehicle: other) was 97 % of control.

With `COc1cc(C=Nc2cc(Cl)c(O)c(Cl)c2)ccc1N(CCCl)CCCl` the T/C (endpoint: mean survival time, dose: 12.5 mg/kg/injection, schedule: Q01DX001 (ip), vehicle: carboxymethylcellulose (CMC)) was 120 % of control and the T/C (endpoint: mean survival time, dose: 25.0 mg/kg/injection, schedule: Q01DX001 (ip), vehicle: carboxymethylcellulose (CMC)) was 155 % of control.

In the case of `COc1ccccc1N=Nc1c(O)n(-c2ccccc2OC)c(=S)n(-c2ccc(Br)cc2)c1=O`, the T/C [8] is reported as 100 % of control, the T/C [9] is reported as 100 % of control and the T/C [1] is reported as 95 % of control.

`O=c1c2cccc3cccc(c32)c2cc(-c3ccccc3)nn12` was tested, and the T/C [8] was 100 % of control, the T/C [9] was 92 % of control and the T/C [1] was 96 % of control. The T/C [2] was 103 % of control.

For `O=C(O)c1ccccc1C(=O)OCC(c1ccccc1)c1ccccc1`, the T/C [5] was 97 % of control and the T/C [6] was 89 % of control.
